Literature values, collected in patent publication US20160228384A1, “EMULSION CONTAINING TWO OILS AND STABILIZERS” (NANOMEDEX, LLC, priority 2015, published 2016).

How the values were obtained:
[1] = not given; remark: listed apart in the source

| SMILES | Solubility in Water | Water Solubility in Solvent | Log P [1] |
| --- | --- | --- | --- |
| CCCCOC(C)=O [Butyl acetate] | 0.64 wt % | 0.98 wt % | 1.8 |
| CCCC(=O)OCC [Ethyl butyrate] | 0.69 wt % | 0.79 wt % | 1.7 |
| CCCCCC(=O)OCC [Ethyl hexanoate] | 0.083 wt % | 0.47 wt % | 2.4 |
| CCCCCCCC(=O)OCC [Ethyl octanoate] | 0.051 wt % | 0.90 wt % | 3.5 |
| CCCCCCOC(C)=O [Hexyl acetate] | 0.043 wt % | 0.566 wt % | 2.4 |
| CCCCCCCCOC(C)=O [Octyl acetate] | 0.018 wt % | 0.02 wt % | 3.4 |
